The source made the active and inactive calls. How the calls were made is not given here.
Tested on: CCRIS mutagenicity, Ames/micronucleus/aberration tests
Assay: CCRIS mutagenicity studies
[1] = Test System: AMES SALMONELLA TYPHIMURIUM, Strain/Indicator: TA98, Metabolic Activation: NONE, Method: PREINCUBATION

## CO[C@@]1(NC(=O)CSC[C@@H](N)C(=O)O)C(=O)N2C(C(=O)O)=C(CSc3nnnn3C)CS[C@@H]21
Test System: AMES SALMONELLA TYPHIMURIUM, Strain/Indicator: TA98, Metabolic Activation: NONE
  mutagenic call: inactive; negative
Test System: AMES SALMONELLA TYPHIMURIUM, Strain/Indicator: TA98, Metabolic Activation: S-9
  mutagenic call: inactive; negative
Test System: AMES SALMONELLA TYPHIMURIUM, Strain/Indicator: TA100, Metabolic Activation: NONE
  mutagenic call: inactive; negative
Test System: AMES SALMONELLA TYPHIMURIUM, Strain/Indicator: TA100, Metabolic Activation: S-9
  mutagenic call: inactive; negative
Test System: AMES SALMONELLA TYPHIMURIUM, Strain/Indicator: TA1535, Metabolic Activation: NONE
  mutagenic call: inactive; negative
Test System: AMES SALMONELLA TYPHIMURIUM, Strain/Indicator: TA1535, Metabolic Activation: S-9
  mutagenic call: inactive; negative
Test System: AMES SALMONELLA TYPHIMURIUM, Strain/Indicator: TA1537, Metabolic Activation: NONE
  mutagenic call: inactive; negative
Test System: AMES SALMONELLA TYPHIMURIUM, Strain/Indicator: TA1537, Metabolic Activation: S-9
  mutagenic call: inactive; negative
Test System: AMES SALMONELLA TYPHIMURIUM, Strain/Indicator: TA1538, Metabolic Activation: NONE
  mutagenic call: inactive; negative
Test System: AMES SALMONELLA TYPHIMURIUM, Strain/Indicator: TA1538, Metabolic Activation: S-9
  mutagenic call: inactive; negative
Test System: E. COLI, Strain/Indicator: WP2 UVRA, Metabolic Activation: NONE
  mutagenic call: inactive; negative
Test System: E. COLI, Strain/Indicator: WP2 UVRA, Metabolic Activation: S-9
  mutagenic call: inactive; negative

## CC(=O)OC/C=C(C)/C=C/C=C(C)/C=C/C1=C(C)CCCC1(C)C
Test System: AMES SALMONELLA TYPHIMURIUM, Strain/Indicator: TA97A, Metabolic Activation: NONE, Method: PREINCUBATION
  mutagenic call: inactive; negative
Test System: AMES SALMONELLA TYPHIMURIUM, Strain/Indicator: TA97A, Metabolic Activation: RAT, LIVER, S-9, AROCLOR 1254, Method: PREINCUBATION
  mutagenic call: inactive; negative
Test System: AMES SALMONELLA TYPHIMURIUM, Strain/Indicator: TA102, Metabolic Activation: NONE, Method: PREINCUBATION
  mutagenic call: inactive; negative
Test System: AMES SALMONELLA TYPHIMURIUM, Strain/Indicator: TA102, Metabolic Activation: RAT, LIVER, S-9, AROCLOR 1254, Method: PREINCUBATION
  mutagenic call: inactive; negative

## OCC(O)CN1CCN(c2ccccc2)CC1 (stereo not drawn)
Test System: CHINESE HAMSTER V-79, Strain/Indicator: V-79/6-THIOGUANINE, Metabolic Activation: NONE
  mutagenic call: inactive; negative
Test System: CHINESE HAMSTER V-79, Strain/Indicator: V-79/6-THIOGUANINE, Metabolic Activation: S-9
  mutagenic call: inactive; negative

## C=CC[Si](C)(C)C
Test System: AMES SALMONELLA TYPHIMURIUM, Strain/Indicator: TA98, Metabolic Activation: HAMSTER, LIVER, S-9, AROCLOR 1254 (10%), Method: PREINCUBATION
  mutagenic call: inactive; negative
[1]
  mutagenic call: inactive; negative
Test System: AMES SALMONELLA TYPHIMURIUM, Strain/Indicator: TA98, Metabolic Activation: RAT, LIVER, S-9, AROCLOR 1254 (10%), Method: PREINCUBATION
  mutagenic call: inactive; negative
Test System: AMES SALMONELLA TYPHIMURIUM, Strain/Indicator: TA100, Metabolic Activation: HAMSTER, LIVER, S-9, AROCLOR 1254 (10%), Method: PREINCUBATION
  mutagenic call: inactive; negative
Test System: AMES SALMONELLA TYPHIMURIUM, Strain/Indicator: TA100, Metabolic Activation: NONE, Method: PREINCUBATION
  mutagenic call: inactive; negative
Test System: AMES SALMONELLA TYPHIMURIUM, Strain/Indicator: TA100, Metabolic Activation: RAT, LIVER, S-9, AROCLOR 1254 (10%), Method: PREINCUBATION
  mutagenic call: inactive; negative
Test System: AMES SALMONELLA TYPHIMURIUM, Strain/Indicator: TA1535, Metabolic Activation: HAMSTER, LIVER, S-9, AROCLOR 1254 (10%), Method: PREINCUBATION
  mutagenic call: inactive; negative
Test System: AMES SALMONELLA TYPHIMURIUM, Strain/Indicator: TA1535, Metabolic Activation: NONE, Method: PREINCUBATION
  mutagenic call: inactive; negative
Test System: AMES SALMONELLA TYPHIMURIUM, Strain/Indicator: TA1535, Metabolic Activation: RAT, LIVER, S-9, AROCLOR 1254 (10%), Method: PREINCUBATION
  mutagenic call: inactive; negative
Test System: AMES SALMONELLA TYPHIMURIUM, Strain/Indicator: TA1537, Metabolic Activation: HAMSTER, LIVER, S-9, AROCLOR 1254 (10%), Method: PREINCUBATION
  mutagenic call: inactive; negative
Test System: AMES SALMONELLA TYPHIMURIUM, Strain/Indicator: TA1537, Metabolic Activation: NONE, Method: PREINCUBATION
  mutagenic call: inactive; negative
Test System: AMES SALMONELLA TYPHIMURIUM, Strain/Indicator: TA1537, Metabolic Activation: RAT, LIVER, S-9, AROCLOR 1254 (10%), Method: PREINCUBATION
  mutagenic call: inactive; negative
Test System: AMES SALMONELLA TYPHIMURIUM, Strain/Indicator: TA1538, Metabolic Activation: HAMSTER, LIVER, S-9, AROCLOR 1254 (10%), Method: PREINCUBATION
  mutagenic call: inactive; negative
Test System: AMES SALMONELLA TYPHIMURIUM, Strain/Indicator: TA1538, Metabolic Activation: NONE, Method: PREINCUBATION
  mutagenic call: inactive; negative
Test System: AMES SALMONELLA TYPHIMURIUM, Strain/Indicator: TA1538, Metabolic Activation: RAT, LIVER, S-9, AROCLOR 1254 (10%), Method: PREINCUBATION
  mutagenic call: inactive; negative
Test System: MOUSE LYMPHOMA, Strain/Indicator: L5178Y (TK+/TK-), Metabolic Activation: NONE, Method: SUSPENSION/PLATE
  mutagenic call: inactive; negative. reevaluation of results: negative
Test System: MOUSE LYMPHOMA, Strain/Indicator: L5178Y (TK+/TK-), Metabolic Activation: RAT, LIVER, S-9, AROCLOR 1254, Method: SUSPENSION/PLATE
  mutagenic call: inactive; negative. reevaluation of results: negative

## O=[N+]([O-])C1c2ccccc2-c2ccccc21
End Point: IN VITRO CHROMOSOMAL ABERRATIONS, Test System: CHINESE HAMSTER LUNG (CHL) CELLS, Metabolic Activation: NONE
  mutagenic call: active; positive
End Point: IN VITRO CHROMOSOMAL ABERRATIONS, Test System: CHINESE HAMSTER LUNG (CHL) CELLS, Metabolic Activation: NONE, Method: FISH
  mutagenic call: active; positive
End Point: IN VITRO CHROMOSOMAL ABERRATIONS, Test System: CHINESE HAMSTER LUNG (CHL) CELLS, Metabolic Activation: RAT, LIVER, S-9, KC-400
  mutagenic call: active; positive
Test System: E. COLI, Strain/Indicator: WP2 UVRA, Metabolic Activation: NONE, Method: FLUCTUATION
  mutagenic call: active; positive

## COC(=O)/C=C/c1ccc([N+](=O)[O-])o1
[1]
  mutagenic call: active; positive

## N#Cc1cccc2cccnc12
Test System: AMES SALMONELLA TYPHIMURIUM, Strain/Indicator: TA100, Metabolic Activation: S-9, Method: PREINCUBATION
  mutagenic call: active; positive

## c1ccc2c(c1)CC[C@@H]1CCC[C@@H]3O[C@]213
Test System: AMES SALMONELLA TYPHIMURIUM, Strain/Indicator: TA98, Metabolic Activation: NONE, Method: STANDARD PLATE
  mutagenic call: inactive; negative
Test System: AMES SALMONELLA TYPHIMURIUM, Strain/Indicator: TA100, Metabolic Activation: NONE, Method: STANDARD PLATE
  mutagenic call: inactive; negative

— PubChem BioAssay AID1259407 (Chemical Carcinogenesis Research Information System (CCRIS), 2018)
